According to patent US6703407B1, “Benzofuran compounds, compositions, and methods” (Eli Lilly and Company, priority 1994, dated 2004):

Key:
Type in all cases: in vivo, Sprague Dawley rats
ovariectomized rats [1] = assay: Uterine weight in ovariectomized rat post-menopausal model (4-day dosing); details: for Uterine Weight (% increase vs. OVX): OVX rats, oral daily for 4 days
Procedure: (§1) In the examples illustrating the methods, a post-menopausal model was used in which effects of different treatments upon circulating lipids were determined.
(§2) Seventy-five day old female Sprague Dawley rats (weight range of 200 to 225 g) were obtained from Charles River Laboratories (Portage, Mich.). The animals were either bilaterally ovariectomized (OVX) or exposed to a Sham surgical procedure at Charles River Laboratories, and then shipped after one week. Upon arrival, they were housed in metal hanging cages in groups of 3 or 4 per cage and had ad libitum access to food (calcium content approximately 0.5%) and water for one week. Room temperature was maintained at 22.20±1.7° C. with a minimum relative humidity of 40%. The photoperiod in the room was 12 hours light and 12 hours dark.
(§3) Dosing Regimen Tissue Collection. After a one week acclimation period (therefore, two weeks post-OVX) daily dosing with test compound was initiated. 17α-ethynyl estradiol or the test compound were given orally, unless otherwise stated, as a suspension in 1% carboxymethylcellulose or dissolved in 20% cyclodextrin. Animals were dosed daily for 4 days. Following the dosing regimen, animals were weighed and anesthetized with a ketamine: Xylazine (2:1, V:V) mixture and a blood sample was collected by cardiac puncture. The animals were then sacrificed by asphyxiation with CO2, the uterus was removed through a midline incision, and a wet uterine weight was determined.

[2] = tested on: Uterine Eosinophil Peroxidase (EPO); assay: Uterine Eosinophil Peroxidase (EPO) Assay; details: for Uterine EPO (V. max): OVX rats, oral daily for 4 days
Description: as §2, §3
Uterine Eosinophil Peroxidase (EPO) Assay. Uteri were kept at 4° C. until time of enzymatic analysis. The uteri were then homogenized in 50 volumes of 50 mM Tris buffer (pH−8.0) containing 0.005% Triton X-100. Upon addition of 0.01% hydrogen peroxide and 10 mM o-phenylenediamine (final concentrations) in Tris buffer, increase in absorbance was monitored for one minute at 450 nm. The presence of eosonophils in the uterus is an indication of estrogenic activity of a compound. The maximal velocity of a 15 second interval was determined over the initial, linear portion of the reaction curve.

ovariectomized rats [3] = assay: Serum cholesterol in ovariectomized rat post-menopausal model (4-day dosing); details: oral daily for 4 days
Procedure: as §1, §2, §3
Cholesterol Analysis. Blood samples were allowed to clot at room temperature for 2 hours, and serum was obtained following centrifugation for 10 minutes at 3000 rpm. Serum cholesterol was determined using a Boehringer Mannheim Diagnostics high performance cholesterol assay. Briefly the cholesterol was oxidized to cholest-4-en-3-one and hydrogen peroxide. The hydrogen peroxide was then reacted with phenol and 4-aminophenazone in the presence of peroxidase to produce a p-quinone imine dye, which was read spectrophotemetrically at 500 nm. Cholesterol concentration was then calculated against a standard curve. The entire assay was automated using a Biomek Automated Workstation.

Uterine Weight (% increase vs. OVX) (ovariectomized rats [1]; dose 0.1 mg/kg)	Uterine EPO (V. max) ([2]; dose 0.1 mg/kg)	Uterine Weight (% increase vs. OVX) (ovariectomized rats [1]; dose 1.0 mg/kg)	Uterine Weight (% increase vs. OVX) (ovariectomized rats [1]; dose 10.0 mg/kg)	Uterine EPO (V. max) ([2]; dose 1.0 mg/kg)	Uterine EPO (V. max) ([2]; dose 10.0 mg/kg)	Structure (SMILES)	uterine weight vs. ovariectomized test animals (in words) (ovariectomized rats [1]; orally administered at 0.1 mg/Kg/day)	eosinophil infiltration into the uterus (number of eosinophils in the stromal layer, in words) ([2]; ovariectomized rats)	Serum Cholesterol (% decrease vs. OVX) (ovariectomized rats [3]; dose 0.1 mg/kg)	Serum Cholesterol (% decrease vs. OVX) (ovariectomized rats [3]; dose 1.0 mg/kg)	Serum Cholesterol (% decrease vs. OVX) (ovariectomized rats [3]; dose 10.0 mg/kg)
172.8	201.9					C#C[C@]1(O)CC[C@H]2[C@@H]3CCc4cc(O)ccc4[C@H]3CC[C@@]21C [EE2, 17α-ethynyl estradiol, reference compound]	substantially greater than the uterine weight of ovariectomized test animals	substantial, expected increase in eosinophil infiltration	92.6		
8.6	4.7	26.3	30.1	5.8	11.3	Cl.Oc1ccc(-c2oc3cc(O)ccc3c2Cc2ccc(OCCN3CCCCC3)cc2)cc1 [Ex-3, [2-(4-Hydroxyphenyl)-6-hydroxybenzofuran-3-yl][4-[2-(1-piperidinyl)ethoxy]phenyl]methane Hydrochloride]			38.9	53.0	73.3
